Measured values: patent US6733759B2, “Nutrient formulation and process for enhancing the health, livability, cumulative weight gain or feed efficiency in poultry and other animals” (Novus International, Inc., priority 1995, dated 2004)

Tested on: IgA in the bile
Assay: IgA in bile by indirect ELISA in birds given 1027 with or without adjuvants
Type: in vivo, chickens
Conditions: day 21 after oral vaccine and adjuvant in 1027
Text: IgA is the antibody class associated with resistance to diseases which attack the intestinal mucosa, such as coccidiosis.
The data presented in FIG. 5 were obtained by indirect enzyme linked immunosorbent assay (ELISA) using monoclonal mouse anti-chicken IgA as the first antibody, polyclonal goat anti-chicken IgA as the second antibody, and biotin-conjugated anti-goat immunoglobulin for detection. Samples were read on an automated ELISA plate reader, and are corrected for differences in dilution.

For `c1ccc([C@H]2CN3CCSC3=N2)cc1` [levamisole], the “IgA in the bile vs 1027 alone” value was “higher day 21 biliary IgA levels”.
